# Assays:
# Carbonic anhydrase 9 = Carbonic anhydrase 9 (Homo sapiens, UniProt Q16790)
# Description: Inhibition of human recombinant carbonic anhydrase 9 expressed in Escherichia coli preincubated for 6 hrs by stopped flow CO2 hydrase assay
# Carbonic anhydrase 12 = Carbonic anhydrase 12 (Homo sapiens, UniProt O43570); experiment: Inhibition of human recombinant carbonic anhydrase 12 expressed in Escherichia coli preincubated for 6 hrs by stopped flow CO2 hydrase assay
# Carbonic anhydrase 2 = Carbonic anhydrase 2 (Homo sapiens, UniProt P00918); experiment: Inhibition of human recombinant carbonic anhydrase 2 expressed in Escherichia coli preincubated for 6 hrs by stopped flow CO2 hydrase assay
# Carbonic anhydrase 1 = Carbonic anhydrase 1 (Homo sapiens, UniProt P00915); experiment: Inhibition of human recombinant carbonic anhydrase 1 expressed in Escherichia coli preincubated for 6 hrs by stopped flow CO2 hydrase assay
# Carbonic anhydrase 1, sequence (P00915 whole entry): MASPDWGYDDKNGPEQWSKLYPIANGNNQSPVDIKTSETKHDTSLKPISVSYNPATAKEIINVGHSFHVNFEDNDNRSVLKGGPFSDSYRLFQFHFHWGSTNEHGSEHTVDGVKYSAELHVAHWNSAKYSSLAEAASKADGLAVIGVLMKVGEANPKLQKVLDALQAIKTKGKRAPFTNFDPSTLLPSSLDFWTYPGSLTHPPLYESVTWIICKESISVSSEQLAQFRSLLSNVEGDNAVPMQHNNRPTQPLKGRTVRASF
# Carbonic anhydrase 12, sequence (O43570 whole entry): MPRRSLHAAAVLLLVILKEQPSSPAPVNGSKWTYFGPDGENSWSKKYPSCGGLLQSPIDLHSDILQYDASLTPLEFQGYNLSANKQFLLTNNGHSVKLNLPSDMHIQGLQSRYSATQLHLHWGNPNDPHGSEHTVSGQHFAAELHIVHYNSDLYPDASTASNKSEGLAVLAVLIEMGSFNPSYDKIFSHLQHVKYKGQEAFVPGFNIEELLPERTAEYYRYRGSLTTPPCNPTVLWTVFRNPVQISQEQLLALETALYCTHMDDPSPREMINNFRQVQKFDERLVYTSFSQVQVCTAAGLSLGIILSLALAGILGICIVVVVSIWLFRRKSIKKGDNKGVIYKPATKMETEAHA
Ki (Carbonic anhydrase 9),Compound,also measured
8.8 nM,NS(=O)(=O)c1ccc(-n2nc(C(=O)N/N=C3\C(=O)Nc4ccccc43)cc2-c2ccccc2)cc1,
4.7 nM,Cc1ccc2c(c1)/C(=N/NC(=O)c1cc(-c3ccccc3)n(-c3ccc(S(N)(=O)=O)cc3)n1)C(=O)N2,
7.8 nM,NS(=O)(=O)c1ccc(-n2ncc(C(=O)N/N=C3\C(=O)Nc4ccc(Br)cc43)c2-c2ccccc2)cc1,
9.4 nM,Nc1c(C(=O)N/N=C2\C(=O)Nc3ccc(Br)cc32)cnn1-c1ccc(S(N)(=O)=O)cc1,
7.4 nM,Nc1c(C(=O)N/N=C2\C(=O)Nc3ccc([N+](=O)[O-])cc32)cnn1-c1ccc(S(N)(=O)=O)cc1,Ki (Carbonic anhydrase 12): 5.4 nM; Ki (Carbonic anhydrase 2): 23.1 nM; Ki (Carbonic anhydrase 1): 70.4 nM

# Further lines, the compound ahead of its results:
Compound,Ki (Carbonic anhydrase 9),also measured
NS(=O)(=O)c1ccc(-n2nc(C(=O)N/N=C3\C(=O)Nc4ccc(Cl)cc43)cc2-c2ccccc2)cc1,7.4 nM,
NS(=O)(=O)c1ccc(-n2nc(C(=O)N/N=C3\C(=O)Nc4ccc(Br)cc43)cc2-c2ccccc2)cc1,20 nM,
NS(=O)(=O)c1ccc(-n2ncc(C(=O)N/N=C3\C(=O)Nc4ccccc43)c2-c2ccccc2)cc1,52.9 nM,
NS(=O)(=O)c1ccc(-n2ncc(C(=O)N/N=C3\C(=O)Nc4ccc(Cl)cc43)c2-c2ccccc2)cc1,9.7 nM,
NS(=O)(=O)c1ccc(-n2ncc(C(=O)N/N=C3\C(=O)Nc4ccc([N+](=O)[O-])cc43)c2-c2ccccc2)cc1,15.7 nM,
NS(=O)(=O)c1ccc(-n2ncc(C(=O)N/N=C3\C(=O)N(Cc4ccccc4)c4ccccc43)c2-c2ccccc2)cc1,,Ki (Carbonic anhydrase 12): 6.5 nM
Nc1c(C(=O)N/N=C2\C(=O)Nc3ccccc32)cnn1-c1ccc(S(N)(=O)=O)cc1,2.8 nM,
Nc1c(C(=O)N/N=C2\C(=O)Nc3ccc(Cl)cc32)cnn1-c1ccc(S(N)(=O)=O)cc1,2.5 nM,
COc1ccc2c(c1)/C(=N/NC(=O)c1cnn(-c3ccc(S(N)(=O)=O)cc3)c1N)C(=O)N2,3.5 nM,

# Source: ChEMBL document CHEMBL3632485 (Eur J Med Chem, 2015)
